# Laboratory results taken from patent EP4806898A1, “HETEROARYL DERIVATIVE COMPOUND AND USE THEREOF” (Voronoi Inc., priority 2023, dated 2025).
# Tests used:
# recombinant USP1 protein = target: T1, recombinant USP1 protein (Homo sapiens, UniProt O94782, DEL125-138/DEL229-408/DEL608-737); assay: Binding affinity to recombinant USP1 protein by differential scanning fluorimetry; conditions: compound 100 µM; 0.03 mg/mL USP1 (Δ1-66, Δ125-138, Δ229-408, Δ608-737); Tm with compound minus Tm with DMSO; read-out: ΔTm (°C)
# T1 sequence (O94782 with tags, fused parts or gaps DEL125-138/DEL229-408/DEL608-737): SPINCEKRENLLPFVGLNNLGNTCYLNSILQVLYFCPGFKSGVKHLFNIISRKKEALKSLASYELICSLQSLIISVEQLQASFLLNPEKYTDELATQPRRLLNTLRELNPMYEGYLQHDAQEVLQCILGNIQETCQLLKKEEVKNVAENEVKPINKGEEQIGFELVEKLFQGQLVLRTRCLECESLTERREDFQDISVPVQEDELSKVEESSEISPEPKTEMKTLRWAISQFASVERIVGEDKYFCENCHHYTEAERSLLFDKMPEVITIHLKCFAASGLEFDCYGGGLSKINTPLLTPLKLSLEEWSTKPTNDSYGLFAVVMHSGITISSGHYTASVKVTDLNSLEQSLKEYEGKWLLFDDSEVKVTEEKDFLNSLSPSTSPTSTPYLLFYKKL
# How it was run: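 USP1 (Δ1-66, Δ125-138, Δ229-408, Δ608-737) at 0.03 mg/mL with dye in 50 mM Tris-HCl pH 8.0, 150 mM NaCl, 2% glycerol, 1 mM DTT; compounds at 100 µM final. Tm read on real-time PCR instrument; ΔTm = Tm with compound minus Tm with DMSO.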
# UWB1.289 cells = assay: Cell proliferation inhibitory activity in BRCA1/2-mutant or HRD-positive cells (Cell Titer-Glo); assay type: cell-based; conditions: UWB1289; UWB1.289 cells, 144 hours after compound treatment, Cell Titer-Glo, 1.5 nM to 10 µM; read-out: GI50 UWB1.289 BRCA1 mut
# How it was run: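 UWB1.289 cells (1,000/well) in 50% MEBM/50% RPMI1640 exposed to […], final 1.5 nM to 10 µM, for 144 h at 37 °C. Viable cells measured by CellTiter-Glo luminescence; GI50 calculated.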
SMILES,ΔTm at 100 µM (recombinant USP1 protein) [°C],GI50 (UWB1.289 cells) [nM]
"C#CCNC(=O)c1cc2cnc(-c3c(OC)ncnc3C3CC3)nc2n1Cc1ccc(-c2nc(C(F)(F)F)cn2C(C)C)cc1 [Example 60, 2-(4-cyclopropyl-6-methoxypyrimidin-5-yl)-7-(4-(1-isopropyl-4-(trifluoromethyl)-1H-imidazol-2-yl)benzyl)-N-(prop-2-yn-1-yl)-7H-pyrrolo[2,3-d]pyrimidine-6-carboxamide]",> 5,< 100
"CNC(=O)c1cc2cnc(-c3c(OC)ncnc3C3CC3)nc2n1Cc1ccc(-c2nc(C(F)(F)F)cn2C2CC2)cc1 [Example 145, 7-(4-(1-cyclopropyl-4-(trifluoromethyl) -1H-imidazol-2-yl)benzyl)-2-(4-cyclopropyl-6-methoxypyrimidin-5-yl)-N-methyl-7H-pyrrolo[2,3-d]pyrimidine-6-carboxamide]",> 5,100 to 500
"COc1ncnc(C2CC2)c1-c1ncc2cc(C(=O)NC[C@@H]3CCO3)n(Cc3ccc(-c4nc(C(F)(F)F)cn4C(C)C)cc3)c2n1 [Example 66, (S)-2-(4-cyclopropyl-6-methoxypyrimidin-5-yl)-7-(4-(1-isopropyl-4-(trifluoromethyl)-1H-imidazol-2-yl)benzyl)-N-(oxetan-2-ylmethyl)-7H-pyrrolo[2,3-d]pyrimidine-6-carboxamide]",> 5,< 100
"CNC(=O)c1cc2cnc(-c3c(OC)ncnc3C3CC3)nc2n1Cc1ccc(-c2nc(C(F)(F)F)c3ccccn23)cc1 [Example 208, 2-(4-cyclopropyl-6-methoxypyrimidin-5-yl)-N-methyl-7-(4-(1-(trifluoromethyl)imidazol[1,5-a]pyridin-3-yl)benzyl)-7H-pyrrolo[2,3-d]pyrimidine-6-carboxamide]",> 5,< 100
"CNC(=O)c1cc2cnc(-c3c(OC)ncnc3C3CC3)nc2n1Cc1ccc(-c2cc(C)ccn2)cc1 [Example 209, 2-(4-cyclopropyl-6-methoxypyrimidin-5-yl)-N-methyl-7-(4-(4-methylpyridin-2-yl)benzyl)-7H-pyrrolo[2,3-d]pyrimidine-6-carboxamide]",> 5,< 100
"COc1ncnc(C2CC2)c1-c1ncc2cc(C(=O)N[C@@H](C)CO)n(Cc3ccc(-c4nc(C(F)(F)F)cn4C)cc3)c2n1 [Example 166, (S)-2-(4-cyclopropyl-6-methoxypyrimidin-5-yl)-N-(1-hydroxypropan-2-yl)-7-(4-(1-methyl-4-(trifluoromethyl)-1H-imidazol-2-yl)benzyl)-7H-pyrrolo[2,3-d]pyrimidine-6-carboxamide]",> 5,< 100
"CNC(=O)c1cc2cnc(-c3c(OC)ncnc3C3CC3)nc2n1Cc1ccc(-c2nc(C(F)(F)F)cn2[C@H]2CCN(C)C[C@@H]2F)cc1 [Example 189, 2-(4-cyclopropyl-6-methoxypyrimidin-5-yl)-7-(4-(1-((3S,4S)-3-fluoro-1-methylpiperidin-4-yl)-4-(trifluoromethyl)-1H-imidazol-2-yl)benzyl) -N-methyl-7H-pyrrolo [2,3-d]pyrimidine-6-carboxamide]",> 5,< 100
"COCC1CN(C(=O)c2cc3cnc(-c4c(OC)ncnc4C4CC4)nc3n2Cc2ccc(-c3nc(C(F)(F)F)cn3C(C)C)cc2)C1 [Example 71, (2-(4-cyclopropyl-6-methoxypyrimid in-5-yl)-7-(4-(1-isopropyl-4-(trifluoromethyl)-1H-imidazol-2-yl)benzyl)-7H-pyrrolo[2,3-d]pyrimidin-6-yl) (3-(methoxymethyl)azetidin-1-yl)methanone]",> 5,< 100

# More lines, main results first:
ΔTm at 100 µM (recombinant USP1 protein) [°C],SMILES,GI50 (UWB1.289 cells) [nM]
> 5,"CN[C@H]1CCN(C(=O)c2cc3cnc(-c4c(OC)ncnc4C4CC4)nc3n2Cc2ccc(-c3nc(C(F)(F)F)cn3C(C)C)cc2)C1 [Example 97, (S)-(2-(4-cyclopropyl-6-methoxypyrimidin-5-yl)-7-(4-(1-isopropyl-4-(trifluoromethyl)-1H-imidazol-2-yl)benzyl)-7H-pyrrolo[2,3-d]pyrimidin-6-yl) (3-(methylamino)pyrrolidin-1-yl)methanone]",100 to 500
> 5,"[2H]C([2H])([2H])N(C(=O)c1cc2cnc(-c3c(OC)ncnc3C3CC3)nc2n1Cc1ccc(-c2nc(C(F)(F)F)cn2C)cc1)C([2H])([2H])[2H] [Example 195, 2-(4-cyclopropyl-6-methoxypyrimidin-5-yl)-N,N-bis(methyl-d3)-7-(4-(1-methyl-4-(trifluoromethyl)-1H-imidazol-2-yl)benzyl)-7H-pyrrolo[2,3-d]pyrimidine-6-carboxamide]",100 to 500
> 5,"CCCNC(=O)c1cc2cnc(-c3c(OC)ncnc3C3CC3)nc2n1Cc1ccc(-c2nc(C(F)(F)F)cn2C(C)C)cc1 [Example 37, 2-(4-cyclopropyl-6-methoxypyrimidin-5-yl)-7-(4-(1-isopropyl-4-(trifluoromethyl)-1H-imidazol-2-yl)benzyl)-N-propyl-7H-pyrrolo[2,3-d]pyrimidine-6-carboxamide]",< 100
> 5,"COc1ncnc(C2CC2)c1-c1ncc2cc(C(=O)NCc3ccccc3)n(Cc3ccc(-c4nc(C(F)(F)F)cn4C(C)C)cc3)c2n1 [Example 49, N-benzyl-2-(4-cyclopropyl-6-methoxypyrimidin-5-yl)-7-(4-(1-isopropyl-4-(trifluoromethyl)-1H-imidazol-2-yl)benzyl)-7H-pyrrolo[2,3-d]pyrimidine-6-carboxamide]",100 to 500
> 5,"[2H]C([2H])([2H])NC(=O)c1cc2cnc(-c3c(OC)ncnc3C3CC3)nc2n1Cc1ccc(-c2nc(C(F)(F)F)cn2C(C)C)cc1 [Example 9, 2-(4-cyclopropyl-6-methoxypyrimidin-5-yl)-7-(4-(1-isopropyl-4-(trifluoromethyl)-1H-imidazol-2-yl)benzyl)-N-(methyl-d3)-7H-pyrrolo[2,3-d]pyrimidine-6-carboxamide]",100 to 500
> 5,"COc1ncnc(C2CC2)c1-c1ncc2cc(C(=O)N[C@H]3CN(C4COC4)C[C@H]3F)n(Cc3ccc(-c4nc(C(F)(F)F)cn4C)cc3)c2n1 [Example 212, 2-(4-cyclopropyl-6-methoxypyrimidin-5-yl)-N-((3S,4R)-4-fluoro-1-(oxetan-3-yl)pyrrolidin-3-yl)-7-(4-(1-methyl-4-(trifluoromethyl)-1H-imidazol-2-yl)benzyl)-7H-pyrrolo [2,3-d]pyrimidine-6-carboxamide]",< 100
> 5,"CN[C@@H]1CCN(C(=O)c2cc3cnc(-c4c(OC)ncnc4C4CC4)nc3n2Cc2ccc(-c3nc(C(F)(F)F)cn3C(C)C)cc2)C1 [Example 109, (R) - (2-(4-cyclopropyl-6-methoxypyrimid in-5-yl)-7-(4-(1-isopropyl-4-(trifluoromethyl)-1H-imidazol-2-yl)benzyl)-7H-pyrrolo[2,3-d]pyrimidin-6-yl) (3-(methylamino)pyrrolidin-1-yl)methanone]",< 100
> 5,"CNCCNC(=O)c1cc2cnc(-c3c(OC)ncnc3C3CC3)nc2n1Cc1ccc(-c2nc(C(F)(F)F)cn2C(C)C)cc1 [Example 143, 2-(4-cyclopropyl-6-methoxypyrimidin-5-yl)-7-(4-(1-isopropyl-4-(trifluoromethyl)-1H-imidazol-2-yl)benzyl) -N-(2-(methylamino)ethyl)-7H-pyrrolo[2,3-d]pyrimidine-6-carboxamide]",100 to 500
> 5,"COc1ncnc(C2CC2)c1-c1ncc2cc(C(=O)NCCN3CCCC3)n(Cc3ccc(-c4nc(C(F)(F)F)cn4C(C)C)cc3)c2n1 [Example 47, 2-(4-cyclopropyl-6-methoxypyrimidin-5-yl)-7-(4-(1-isopropyl-4-(trifluoromethyl)-1H-imidazol-2-yl)benzyl)-N-(2-(pyrrolidin-1-yl)ethyl)-7H-pyrrolo[2,3-d]pyrimidine-6-carboxamide]",< 100
> 5,"COc1ncnc(C2CC2)c1-c1ncc2cc(C(=O)NCCO)n(Cc3ccc(-c4nc(C(F)(F)F)cn4C(C)C)cc3)c2n1 [Example 157, 2-(4-cyclopropyl-6-methoxypyrimidin-5-yl)-N-(2-hydroxyethyl)-7-(4-(1-isopropyl-4-(trifluoromethyl)-1H-imidazol-2-yl)benzyl)-7H-pyrrolo[2,3-d]pyrimidine-6-carboxamide]",< 100
> 5,"COC[C@H](C)NC(=O)c1cc2cnc(-c3c(OC)ncnc3C3CC3)nc2n1Cc1ccc(-c2nc(C(F)(F)F)cn2C(C)C)cc1 [Example 23, (S)-2-(4-cyclopropyl-6-methoxypyrimidin-5-yl)-7-(4-(1-isopropyl-4-(trifluoromethyl)-1H-imidazol-2-yl)benzyl)-N-(1-methoxypropan-2-yl)-7H-pyrrolo[2,3-d]pyrimidine-6-carboxamide]",< 100
